In assay [1] the test system is A549 (human lung carcinoma) cells. Briefly: Cell Viability Assay (CellTiter-Glo), A549. The note with it: Homo sapiens, A549, 72 h. It counts as cell-based. As to the method:
MIA PaCa-2 (human pancreatic carcinoma; ATCC CRL-1420) or A549 (human lung carcinoma; ATCC CCL-185) cells were cultured in RPMI 1640 medium containing 10% fetal bovine serum and 1× penicillin/streptomycin/L-glutamine. Cells were seeded in 384-well plates at a density of 1.67E+04 cells/mL and incubated at 37° C., 5% CO2, overnight. Serially-diluted compound or DMSO was added to the cells, and plates were incubated at 37° C., 5% CO2 for 72 h. Cell viability was measured using a CellTiter-Glo® Luminescent Cell Viability Assay kit (Promega) according to the manufacturer's protocol. The luminescence signal of treated samples was normalized to DMSO control, and data were analyzed using a 4-parameter logistic model to calculate IC50 values.
(In ATP-based viability assays light output follows the ATP content of the culture.)

For another assay, the target named is KRAS G12C (Homo sapiens (Human), UniProt P01116, C118A/G12C). In words: 2 h coupled exchange assay. It counts as biochemical. Particulars: Avg 2 h Coupled exchange IC50, 2 h compound pre-incubation. As for the experimental part:
The term “2 h coupled exchange assay” or “20 h coupled exchange assay” as used herein refers to the assay described in the Section entitled “BIOLOGICAL EVALUATION.”

In assay [2] the test system is MIA PaCa-2 (human pancreatic carcinoma) cells. Briefly: Cell Viability Assay (CellTiter-Glo), MIA PaCa-2. It counts as cell-based. As for the experimental part:
Serially-diluted compound or DMSO was added to the cells, and plates were incubated at 37° C., 5% CO2 for 72 h. Cell viability was measured using a CellTiter-Glo® Luminescent Cell Viability Assay kit (Promega) according to the manufacturer's protocol. The luminescence signal of treated samples was normalized to DMSO control, and data were analyzed using a 4-parameter logistic model to calculate IC50 values.

Where [3] appears, read: SOS-mediated nucleotide exchange.

The IC50 is the midpoint of a concentration-inhibition curve. High values mean weaker potency in that assay, low ones greater potency in that assay.

Chain of KRAS G12C (P01116 other isoform, or with tags, fused parts or gaps G12C/C118A): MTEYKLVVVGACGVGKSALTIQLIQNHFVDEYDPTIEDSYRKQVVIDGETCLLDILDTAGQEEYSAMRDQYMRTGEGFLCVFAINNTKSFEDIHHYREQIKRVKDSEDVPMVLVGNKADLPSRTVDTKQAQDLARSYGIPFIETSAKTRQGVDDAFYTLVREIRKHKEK

As for `C=CC(=O)N1CC2(CCN(c3nc4c(c(-c5cccc(C)c5C)n3)CCCC4)C2)C1` [Example 1-26, 1-(6-(4-(2,3-dimethylphenyl)-5,6,7,8-tetrahydro-2-quinazolinyl)-2,6-diazaspiro[3.4]octan-2-yl)-2-propen-1-one], the IC50 in assay [1] is 13800 nM; on KRAS G12C (setting [3]) it was 3980 nM; in assay [2] (Homo sapiens, MIA PaCa-2, 72 h), 9820 nM.
With `C=CC(=O)N1CC2(CCN(c3nc4c(c(-c5c(C)ccc6cn[nH]c56)c3C#N)C[C@H]3C[C@@H]4C3(C)C)C2)C1` (single isomer, unassigned) [Example 14-51], the IC50 is above 5000 nM in assay [1]; 11 nM at KRAS G12C; 18 nM in assay [2] (Homo sapiens, MIA PaCa-2, 72 h).
Turning to `C=CC(=O)N1CC2(CCN(c3nc4c(c(-c5cccc6cccc(C)c56)n3)CCCC4)C2)C1` [Example 1-7, 1-(6-(4-(8-methyl-1-naphthalenyl)-5,6,7,8-tetrahydro-2-quinazolinyl)-2,6-diazaspiro[3,4]octan-2-yl)-2-propen-1-one], the IC50 in assay [1] was above 5000 nM; on KRAS G12C (setting [3]), 997 nM; in assay [2] (Homo sapiens, MIA PaCa-2, 72 h) it was above 5000 nM.
Take `C=CC(=O)N1CC2(CCN(c3nc4c(c(-c5ccccc5F)c3C#N)COC(c3scnc3C)C4)C2)C1` [Example 23-8, (7R)-4-(2-fluorophenyl)-7-(4-methyl-1,3-thiazol-5-yl)-2-(2-(2-propenoyl)-2,6-diazaspiro[3.4]octan-6-yl)-7,8-dihydro-5H-pyrano[4,3-b]pyridine-3-carbonitrile(7S)-4-(2-fluorophenyl)-7-(4-methyl-1,3-thiazol-5-yl)-2-(2-(2-propenoyl)-2,6-diazaspiro[3.4]octan-6-yl)-7,8-dihydro-5H-pyrano[4,3-b]pyridine-3-carbonitrile]: the IC50 in assay [1] is above 5000 nM; against KRAS G12C, 169 nM; in assay [2] (Homo sapiens, MIA PaCa-2, 72 h) it was 2240 nM.
As for `C=CC(=O)N1CC2(CCN(c3nc4c(c(-c5c(N)c(Cl)cc(Cl)c5F)c3C#N)COC(C)(C)C4)C2)C1` (single isomer, unassigned) [Example 13-155, 4-(2-amino-3,5-dichloro-6-fluorophenyl)-7,7-dimethyl-2-(2-(2-propenoyl)-2,6-diazaspiro[3.4]octan-6-yl)-7,8-dihydro-5H-pyrano[4,3-b]pyridine-3-carbonitrile], the IC50 in assay [1] is above 5000 nM; on KRAS G12C (setting [3]), 111 nM; in assay [2] (72 h), 93 nM.
Consider `C=CC(=O)N1CC2(CCN(c3nc(-c4c(C)ccc5[nH]ncc45)c4c(n3)C(C)CCC4)C2)C1` (stereo not drawn) [Example 1-15, 1-(6-((8)-8-methyl-4-(5-methyl-1H-indazol-4-yl)-5,6,7,8-tetrahydro-2-quinazolinyl)-2,6-diazaspiro[3.4]octan-2-yl)-2-propen-1-one], for which the IC50 in assay [1] is above 5000 nM; against KRAS G12C (setting [3]), 9060 nM; in assay [2] (Homo sapiens, MIA PaCa-2, 72 h), above 5000 nM.
Take `C=CC(=O)N1CC2(CCN(c3nc4cc(-c5scnc5C)ccc4c(-c4c(O)cccc4F)c3C#N)C2)C1` (single isomer, unassigned) [Example 19-4, (P)-4-(2-fluoro-6-hydroxyphenyl)-7-(4-methyl-1,3-thiazol-5-yl)-2-(2-(2-propenoyl)-2,6-diazaspiro[3.4]octan-6-yl)-3-quinolinecarbonitrile]: the IC50 in assay [1] is above 5000 nM; at KRAS G12C, 38 nM; in assay [2] (72 h) it was 695 nM.
In the case of `C=CC(=O)N1CC2(CCN(c3nc4c(c(-c5c(C)ccc6[nH]ncc56)c3C#N)CCCCC4)C2)C1` [Example 2-10, 4-(5-methyl-1H-indazol-4-yl)-2-(2-(2-propenoyl)-2,6-diazaspiro[3.4]octan-6-yl)-6,7,8,9-tetrahydro-5H-cyclohepta[b]pyridine-3-carbonitrile], the concentration for half-maximal inhibition (IC50) in assay [1] is above 5000 nM; against KRAS G12C (setting [3]), 44 nM; in assay [2] (Homo sapiens, MIA PaCa-2, 72 h), 452 nM.
Turning to `C=CC(=O)N1CC2(CCN(c3nc4c(c(-c5c(C)ccc6cnn(C)c56)c3C#N)CO[C@@H](C3CC3)C4)C2)C1` (single isomer, unassigned) [Example 13-122], the IC50 in assay [1] is above 5000 nM; on KRAS G12C (setting [3]), 299 nM; in assay [2] (Homo sapiens, MIA PaCa-2, 72 h), 1080 nM.
On to `C=CC(=O)N1CC2(CCN(c3nc4c(c(-c5ccccc5F)c3C#N)CCN(CC3CCCN3C)C4)C2)C1` [Example 21-29, 4-(2-fluorophenyl)-7-(((2R)-1-methyl-2-pyrrolidinyl)methyl)-2-(2-(2-propenoyl)-2,6-diazaspiro[3.4]octan-6-yl)-5,6,7,8-tetrahydro-1,7-naphthyridine-3-carbonitrile 4-(2-fluorophenyl)-7-(((2S)-1-methyl-2-pyrrolidinyl)methyl)-2-(2-(2-propenoyl)-2,6-diazaspiro[3.4]octan-6-yl)-5,6,7,8-tetrahydro-1,7-naphthyridine-3-carbonitrile], for which the 50% inhibitory concentration (IC50) in assay [1] is above 25000 nM; against KRAS G12C it was 822 nM; in assay [2] (Homo sapiens, MIA PaCa-2, 72 h), 4410 nM.
For the compound `C=CC(=O)N1CC2(CCN(c3nc4c(c(-c5cc(O)ccc5Cl)c3C#N)CCC(c3scnc3C)=C4)C2)C1` [Example 23-45, 4-(2-chloro-5-hydroxyphenyl)-7-(4-methyl-1,3-thiazol-5-yl)-2-(2-(2-propenoyl)-2,6-diazaspiro[3.4]octan-6-yl)-5,6-dihydro-3-quinolinecarbonitrile], the IC50 in assay [1] was above 5000 nM; on KRAS G12C, 33 nM; in assay [2] (Homo sapiens, MIA PaCa-2, 72 h) it was 1070 nM.
In the case of `C=CC(=O)N1CC2(CCN(c3nc4c(c(-c5c(C)ccc6[nH]ncc56)c3C#N)CC(C)(C)C4)C2)C1` [Example 13-12, 6,6-dimethyl-4-(5-methyl-1H-indazol-4-yl)-2-(2-(2-propenoyl)-2,6-diazaspiro[3.4]octan-6-yl)-6,7-dihydro-5H-cyclopenta[b]pyridine-3-carbonitrile], the IC50 in assay [1] is above 5000 nM; against KRAS G12C (setting [3]) it was 29 nM; in assay [2] (Homo sapiens, MIA PaCa-2, 72 h) it was 157 nM.
For `C=CC(=O)N1CC2(CCN(c3nc(-c4ccccc4F)c4c(n3)N(C)CCC4)C2)C1` [Example 1-33, 1-(6-(4-(2-fluorophenyl)-8-methyl-5,6,7,8-tetrahydropyrido[2,3-d]pyrimidin-2-yl)-2,6-diazaspiro[3,4]octan-2-yl)-2-propen-1-one], in that order: 13400 nM, 174000 nM and 13400 nM.
As to `C=CC(=O)N1CC2(CCN(c3nc4cc(-c5ccnn5C)ccc4c(-c4c(C)ccc5[nH]ncc45)c3C#N)C2)C1` [Example 15-1, 4-(5-methyl-1H-indazol-4-yl)-7-(1-methyl-1H-pyrazol-5-yl)-2-(2-(2-propenoyl)-2,6-diazaspiro[3.4]octan-6-yl)-3-quinolinecarbonitrile], the IC50 in assay [1] stood at 3310 nM; against KRAS G12C it was 31 nM; in assay [2] (Homo sapiens, MIA PaCa-2, 72 h) it was 144 nM.
Turning to `C=CC(=O)N1CC2(CCN(c3cc4c(c(-c5c(C)ccc6cnn(C)c56)c3C#N)CCC(C)(C)C4)C2)C1` [Example 2-97, 1-(1,6-dimethyl-1H-indazol-7-yl)-6,6-dimethyl-3-(2-(2-propenoyl)-2,6-diazaspiro[3.4]octan-6-yl)-5,6,7,8-tetrahydro-2-naphthalenecarbonitrile], the IC50 was above 5000 nM in assay [1]; 82 nM against KRAS G12C (setting [3]); 207 nM in assay [2] (Homo sapiens, MIA PaCa-2, 72 h).
For the compound `C=CC(=O)N1CC2(CCN(c3nc4c(F)cccc4c(-c4c(C)ccc5[nH]ncc45)c3C#N)C2=O)C1` [Example 1-44, 8-fluoro-4-(5-methyl-1H-indazol-4-yl)-2-(5-oxo-2-(2-propenoyl)-2,6-diazaspiro[3,4]octan-6-yl)-3-quinolinecarbonitrile], the half-inhibitory concentration (IC50) was determined as 12500 nM in assay [1]; 6830 nM against KRAS G12C (setting [3]); 6400 nM in assay [2] (Homo sapiens, MIA PaCa-2, 72 h).

The record behind these values is US20240059703A1 (AMGEN INC., priority 2021, published 2024).
